Measurements published in PMC9774648, “Synthesis, Physicochemical Properties and Molecular Docking of New Benzothiazole Derivatives as Antimicrobial Agents Targeting DHPS Enzyme” (Antibiotics, 2022).
≈ marks a conversion by molar mass, not a printed value. Where two headings read alike, the source gives them in different places.

How the values were obtained:
S. mutans (ATCC: 25175) = experiment: Agar well diffusion, inhibition zone, S. mutans; assay type: cell-based; conditions: for zone of inhibition at 15000 µg/mL: Streptococcus mutans, read-out: Diameter of the Inhibition Zone, S. mutans
S. aureus (ATCC: 6538) = experiment: Agar well diffusion, inhibition zone, S. aureus; assay type: cell-based; conditions: for zone of inhibition at 15000 µg/mL: Staphylococcus aureus, read-out: Diameter of the Inhibition Zone, S. aureus
S. mutans = experiment: MIC, twofold serial dilution, S. mutans; assay type: cell-based; conditions: Streptococcus mutans, read-out: The Minimum Inhibitory Concentration (MIC), S. mutans
S. aureus = experiment: MIC, twofold serial dilution, S. aureus; assay type: cell-based; conditions: Staphylococcus aureus; twofold serial dilution in broth, 37 °C 16–20 h; read-out: The Minimum Inhibitory Concentration (MIC), S. aureus
Description: The new synthetic compounds, 6a–c, 12a–c, 14a–c, 16a–c and 19a–e, were tested in vitro to evaluate antibacterial activities against Gram-negative and Gram-positive bacteria, such as E. coli (ATCC: 3008), K. pneumonia (ATCC: 4415) and P. aeruginosa (ATCC: 27853), as an example for Gram-negative bacteria, as well as S. aureus (ATCC: 6538) and S. mutans (ATCC: 25175) for Gram-positive bacteria. The antifungal activities were evaluated also for the novel compounds in vitro against C. albicans (ATCC: 10231). The antibacterial and antifungal activities were determined by the agar-diffusion method using gentamicin, ampicillin and sulfadiazine, example of sulfa drug, as standard drugs against Gram-negative and Gram-positive, while nystatin was used as standard drug against the fungal strain. Table 1 summarizes the results for all tested compounds as the average diameter of inhibition zones of microbial growth around the discs in mm ± SD.
For each strain, three to five isolated colonies were selected from the fresh agar plate and were transferred into a tube containing 3–4 mL of sterile broth medium. The bacterial suspension was mixed well and incubated at 35–37 °C for 2–6 h. The turbidity of the bacterial suspension should be equal to or greater than the turbidity of a McFarland Standard 0.5. After that, 1 mg of the tested compound (antimicrobial agent) was dissolved in 1 mL DMSO and two-fold serial dilution was done using broth medium. A fixed volume of the prepared bacterial inoculum was added to each tube and incubated for at 37 °C 16–20 h. The MIC is defined as the lowest concentration of the antimicrobial agent that inhibits visible growth of the tested isolate as observed with the unaided eye.

E. coli (ATCC: 3008) = experiment: Agar well diffusion, inhibition zone, E. coli; assay type: cell-based; conditions: agar well diffusion, 15 mg/mL, 100 μL per well, 37 °C 24 h, mean ± SD, triplicate
[1] = test system: P. aeruginosa (ATCC: 27853); experiment: Agar well diffusion, inhibition zone, P. aeruginosa; assay type: cell-based; conditions: agar well diffusion, 15 mg/mL, 100 μL per well, 37 °C 24 h, mean ± SD, triplicate; for zone of inhibition at 15000 µg/mL: Pseudomonas aeruginosa, read-out: Diameter of the Inhibition Zone, P. aeruginosa
[2] = test system: K. pneumonia (ATCC: 4415); experiment: Agar well diffusion, inhibition zone, K. pneumonia; assay type: cell-based; conditions: agar well diffusion, 15 mg/mL, 100 μL per well, 37 °C 24 h, mean ± SD, triplicate
[3] = target: DHPS enzyme (dihydropteroate synthase) (Bacillus anthracis, UniProt Q81VW8); experiment: biochemical; conditions: for inhibition at 0.1 µg/mL: 0.1 μg/mL; for inhibition at 0.1 µg/mL / inhibition at 1 µg/mL / inhibition at 10 µg/mL / inhibition at 100 µg/mL: read-out: Inhibition % against DHPS enzyme; for inhibition at 1 µg/mL: 1 μg/mL; for inhibition at 10 µg/mL: 10 μg/mL; for inhibition at 100 µg/mL: 100 μg/mL
Chain of DHPS enzyme (dihydropteroate synthase) (Q81VW8 1-280): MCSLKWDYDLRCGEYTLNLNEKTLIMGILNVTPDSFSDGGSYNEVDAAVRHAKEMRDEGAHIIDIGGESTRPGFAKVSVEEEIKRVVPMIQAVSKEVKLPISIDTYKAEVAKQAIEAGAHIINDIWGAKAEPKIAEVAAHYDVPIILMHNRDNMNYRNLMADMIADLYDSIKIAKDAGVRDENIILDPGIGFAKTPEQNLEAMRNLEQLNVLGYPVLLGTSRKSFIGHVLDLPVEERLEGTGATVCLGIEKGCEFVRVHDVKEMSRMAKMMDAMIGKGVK

[4] = test system: C. albicans (ATCC: 10231); experiment: Agar well diffusion, inhibition zone, C. albicans; assay type: cell-based; conditions: 15 mg/mL, 100 μL per well, mean ± SD, triplicate; for zone of inhibition at 15000 µg/mL: Candida albicans, read-out: Diameter of the Inhibition Zone, C. albicans
P. aeruginosa = experiment: MIC, twofold serial dilution, P. aeruginosa; assay type: cell-based; conditions: Pseudomonas aeruginosa; twofold serial dilution in broth, 37 °C 16–20 h; read-out: The Minimum Inhibitory Concentration (MIC), P. aeruginosa
[5] = agar well diffusion, 15 mg/mL, 100 μL per well, 37 °C 24 h, mean ± SD, triplicate
[6] = twofold serial dilution in broth, 37 °C 16–20 h

Row | Compound | MIC (S. aureus) | zone of inhibition at 15000 µg/mL (S. mutans (ATCC: 25175); [5]) | zone of inhibition at 15000 µg/mL (S. aureus (ATCC: 6538); [5]) | Diameter of the Inhibition Zone, E. coli (E. coli (ATCC: 3008)) | Diameter of the Inhibition Zone, P. aeruginosa [1] | Diameter of the Inhibition Zone, K. pneumonia [2] | melting point | Diameter of the Inhibition Zone, S. mutans (S. mutans (ATCC: 25175); [5]) | also measured
1 | CC1(C)S[C@@H]2[C@H](NC(=O)[C@H](N)c3ccccc3)C(=O)N2[C@H]1C(=O)O [Ampicillin, reference compound] | 179 µM (≈ 62.5 µg/mL) |  |  |  |  |  |  |  | zone of inhibition at 15000 µg/mL (S. mutans (ATCC: 25175); 24 h): 30 ± 0.5 mm; zone of inhibition at 15000 µg/mL (S. aureus (ATCC: 6538); 24 h): 22 ± 0.1 mm; MIC (S. mutans): 179 µM (≈ 62.5 µg/mL)
2 | Nc1c(C(=O)Nc2ccccc2)cc(-c2nc3ccccc3s2)c(=O)n1NS(=O)(=O)c1ccc(Cl)cc1 [Compound 6a, 2-Amino-5-(benzo[d]thiazole-2-yl)-1-(4-chlorophenylsulfonamido)-6-oxo-N-phenyl-1,6-dihydropyridine-3–carboxamide] | 906 µM (≈ 500 µg/mL) | 12.3 ± 0.6 mm | 19.6 ± 0.6 mm | - | - | ^a - |  |  | 
3 | Nc1c(C(=O)Nc2ccc(Cl)cc2)cc(-c2nc3ccccc3s2)c(=O)n1NS(=O)(=O)c1ccc(Cl)cc1 [Compound 6b, 2-Amino-5-(benzo[d]thiazole-2-yl)-N-(4-chlorophenyl)-1-(4-chlorophenylsulfonamido)-6-oxo-1,6-dihydropyridine-3–carboxamide] | 1700 µM (≈ 1000 µg/mL) | 15.3 ± 0.5 mm | 18.3 ± 0.6 mm | - | - | - | 334 to 336 °C |  | MIC (S. mutans; [6]): 1700 µM (≈ 1000 µg/mL)
4 | Cc1ccc(NC(=O)c2cc(-c3nc4ccccc4s3)c(=O)n(NS(=O)(=O)c3ccc(Cl)cc3)c2N)cc1 [Compound 6c, 2-Amino-5-(benzo[d]thiazole-2-yl)-1-(4-chlorophenylsulfonamido)-6-oxo-N-(p-tolyl)-1,6-dihydropyridine-3–carboxamide] |  | 10.6 ± 0.5 mm | 10.6 ± 0.5 mm | - | - | - | 302 to 305 °C |  | 
5 | O=c1[nH]c(-c2ccc(Cl)cc2)ccc1-c1nc2ccccc2s1 [Compound 12a, 3-(Benzo[d]thiazol-2-yl)-6-(4-chlorophenyl)pyridin-2(1H)-one] | 369 µM (≈ 125 µg/mL) |  | 19.6 ± 0.6 mm | - | - | - |  | - | IC50 [3]: 83.6 µM; inhibition at 0.1 µg/mL [3]: 11%; inhibition at 1 µg/mL [3]: 27%; inhibition at 10 µg/mL [3]: 44%; inhibition at 100 µg/mL [3]: 58%
6 | O=c1[nH]c(-c2ccc(Br)cc2)ccc1-c1nc2ccccc2s1 [Compound 12b, 3-(Benzo[d]thiazol-2-yl)-6-(4-bromophenyl)pyridin-2(1H)-one] | 2610 µM (≈ 1000 µg/mL) |  | 17.6 ± 0.6 mm | - | - | - | 345 to 346 °C | - | 
7 | COc1ccc(-c2ccc(-c3nc4ccccc4s3)c(=O)[nH]2)cc1 [Compound 12c, 3-(Benzo[d]thiazol-2-yl)-6-(4-methoxyphenyl)pyridin-2(1H)-one] |  | 11.3 ± 0.5 mm | 15.6 ± 0.5 mm | - | - | - |  |  | 
8 | Cc1ccc(S(=O)(=O)NNC(=O)/C(=C/c2ccc(F)cc2)c2nc3ccccc3s2)cc1 [Compound 14a] | 1070 µM (≈ 500 µg/mL) | 18.3 ± 0.6 mm | 19.3 ± 0.6 mm | - | - | - | 201 to 202 °C |  | zone of inhibition at 15000 µg/mL [4]: 20.6 ± 0.6 mm; MIC (S. mutans; [6]): 2140 µM (≈ 1000 µg/mL)
9 | Cc1ccc(/C=C(/C(=O)NNS(=O)(=O)c2ccc(C)cc2)c2nc3ccccc3s2)cc1 [Compound 14c, N-(2-(Benzo[d]thiazole-2-yl)-3-(p-tolyl)acryloyl)-4-methylbenzene-sulfonohydrazide] | 135 µM (≈ 62.6 µg/mL) | 20.3 ± 0.6 mm | 30.3 ± 0.6 mm | - | - | - | 195 to 196.5 °C |  | zone of inhibition at 15000 µg/mL [4]: 11.3 ± 0.5 mm; IC50 [3]: 56.4 µM; inhibition at 0.1 µg/mL [3]: 8.6%; inhibition at 1 µg/mL [3]: 21%; inhibition at 10 µg/mL [3]: 46%; inhibition at 100 µg/mL [3]: 59%; MIC (S. mutans; [6]): 539 µM (≈ 250 µg/mL)
10 | O=C(NNS(=O)(=O)c1ccccc1)/C(=N/Nc1ccccc1)c1nc2ccccc2s1 [Compound 19a, N′-(2-(Benzo[d]thiazol-2-yl)-2-(2-phenylhydrazono)acetyl)benzenesulfono-hydrazide] |  |  |  | - | - | - | 246 to 248.6 °C | - | zone of inhibition at 15000 µg/mL [4]: 10.3 ± 0.5 mm; Diameter of the Inhibition Zone, S. aureus (S. aureus (ATCC: 6538); [5]): -
11 | O=C(NNS(=O)(=O)c1ccccc1)C(=NNc1ccc(Cl)cc1)c1nc2ccccc2s1 [Compound 19b, N′-(2-(Benzo[d]thiazol-2-yl)-2-(2-(4-chlorophenyl)hydrazono)acetyl)benzene-sulfonohydrazide] |  |  | 11.6 ± 0.5 mm | - | - | - | 265 to 267 °C | - | 
12 | Cc1ccc(NN=C(C(=O)NNS(=O)(=O)c2ccccc2)c2nc3ccccc3s2)cc1 [Compound 19c, N′-(2-(Benzo[d]thiazol-2-yl)-2-(2-(4-methylphenyl)hydrazono)acetyl)benzene-sulfonohydrazide] |  |  | 11 ± 1 mm | - |  | - | 262 to 263 °C | - | zone of inhibition at 15000 µg/mL [4]: 11.6 ± 0.5 mm; zone of inhibition at 15000 µg/mL [1]: 16 ± 1 mm; MIC (P. aeruginosa): 2150 µM (≈ 1000 µg/mL)
13 | Cc1ccc(S(=O)(=O)NNC(=O)/C(=N/Nc2ccc(Cl)cc2)c2nc3ccccc3s2)cc1 [Compound 19d, N′-(2-(Benzo[d]thiazol-2-yl)-2-(2-(4-chlorophenyl)hydrazono)acetyl)-4-methylbenzenesulfono-hydrazide] |  |  |  | - |  | - | 280 to 281 °C | - | Diameter of the Inhibition Zone, S. aureus (S. aureus (ATCC: 6538); [5]): -; zone of inhibition at 15000 µg/mL [1]: 21.6 ± 0.6 mm; MIC (P. aeruginosa): 500 µM (≈ 250 µg/mL)
14 | Cc1ccc(N/N=C(/C(=O)NNS(=O)(=O)c2ccc(C)cc2)c2nc3ccccc3s2)cc1 [Compound 19e, N′-(2-(Benzo[d]thiazol-2-yl)-2-(2-(4-methylphenyl)hydrazono)acetyl)-4-methylbenzenesulfono-hydrazide] |  |  |  | - | - | - | 285 to 286 °C | - | Diameter of the Inhibition Zone, S. aureus (S. aureus (ATCC: 6538); [5]): -
15 | C[C@@H]1[C@H](O)[C@@H](C)/C=C/C=C/CC/C=C/C=C/C=C/C=C/C(O[C@H]2O[C@H](C)[C@@H](O)[C@H](N)[C@@H]2O)CC2O[C@](O)(CC(O)C(O)CCC(O)CC(O)CC(O)CC(=O)O[C@H]1C)CC(O)C2C(=O)O (stereo partly drawn) [Nystatin, reference compound] |  |  |  |  |  |  |  |  | Diameter of the Inhibition Zone, C. albicans [4]: 21.0 ± 0.5 mm
